Activity calls are given as the source filed them. The calls are words filed in the database; no cut-off is given here.
Legend:
[1] = target: T1, Platelet glycoprotein VI (Homo sapiens) (UniProt Q9HCN6); assay: Antagonist activity at GPVI in human plasma assessed as inhibition of collagen-induced platelet aggregation at 20 nM to 1 uM preincubated for 5 mins followed by aggregation inducer addition and measured after 5 mins by light transmission aggregometry; format: cell-free; details: dose 20-1000 nM, time 10.0 min
T1 sequence (whole entry): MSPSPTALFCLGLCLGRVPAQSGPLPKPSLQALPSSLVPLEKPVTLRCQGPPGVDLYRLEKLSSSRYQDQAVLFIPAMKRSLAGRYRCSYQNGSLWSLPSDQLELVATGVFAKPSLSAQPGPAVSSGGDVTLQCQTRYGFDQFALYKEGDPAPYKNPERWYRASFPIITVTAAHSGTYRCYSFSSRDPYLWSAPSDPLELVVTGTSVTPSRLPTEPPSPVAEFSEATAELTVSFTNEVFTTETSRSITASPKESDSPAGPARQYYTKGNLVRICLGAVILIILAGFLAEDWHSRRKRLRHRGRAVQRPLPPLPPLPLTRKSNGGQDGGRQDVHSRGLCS

[2] = target: T2, Proteinase-activated receptor 1 (Homo sapiens) (UniProt P25116); assay: Antagonist activity at PAR1 in human plasma assessed as inhibition of PAR1-activated peptide SFLLRNPNDKY induced platelet aggregation at 20 nM to 1 uM preincubated for 5 mins followed by aggregation inducer addition and measured after 5 mins by light transmission aggregometry; format: functional, cell-free; details: dose 20-1000 nM, time 10.0 min
T2 sequence (whole entry): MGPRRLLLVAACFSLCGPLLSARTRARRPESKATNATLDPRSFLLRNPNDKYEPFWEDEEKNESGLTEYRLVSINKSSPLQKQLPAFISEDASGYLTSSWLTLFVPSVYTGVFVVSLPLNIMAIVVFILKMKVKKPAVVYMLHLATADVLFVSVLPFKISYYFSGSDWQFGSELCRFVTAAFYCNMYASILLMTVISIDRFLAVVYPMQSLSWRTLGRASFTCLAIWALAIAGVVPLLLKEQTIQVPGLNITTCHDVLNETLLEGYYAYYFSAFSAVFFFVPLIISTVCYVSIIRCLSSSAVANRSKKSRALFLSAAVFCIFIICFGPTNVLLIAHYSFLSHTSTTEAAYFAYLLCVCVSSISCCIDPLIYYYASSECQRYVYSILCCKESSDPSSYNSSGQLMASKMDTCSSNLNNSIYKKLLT

Platelet [3] = assay: Inhibition of platelet aggregation in human platelet rich plasma preincubated for 5 mins followed by aggregation inducer addition and measured after 5 mins by light transmission aggregometry; format: functional, cell-based
[4] = target: T2, Proteinase-activated receptor 1 (Homo sapiens); assay: Antagonist activity at PAR1 in human plasma assessed as inhibition of PAR1-activated peptide SFLLRNPNDKY induced platelet aggregation upto 9 uM preincubated for 5 mins followed by aggregation inducer addition and measured after 5 mins by light transmission aggregometry; format: functional, cell-free; details: time 10.0 min
Platelet [5] = assay: Antagonist activity at GPIB/vWF in human plasma assessed as inhibition of ristocetin-induced platelet aggregation at 20 nM to 1 uM preincubated for 5 mins followed by aggregation inducer addition and measured after 5 mins by light transmission aggregometry; format: cell-free; details: dose 20-1000 nM, time 10.0 min
[6] = target: T3, Proteinase-activated receptor 4 (Homo sapiens) (UniProt Q96RI0); assay: (§1) Antagonist activity at PAR4 in human plasma assessed as inhibition of PAR4-activated peptide AYPGPK-NH2 induced platelet aggregation by measuring residual aggregation rate at 20 nM to 1 uM preincubated for 5 mins followed by aggregation inducer addition and measured after 5 mins by light transmission aggregometry relative to control; format: functional, cell-free; details: filed as antagonist, dose 20-1000 nM, time 10.0 min
T3 sequence (whole entry): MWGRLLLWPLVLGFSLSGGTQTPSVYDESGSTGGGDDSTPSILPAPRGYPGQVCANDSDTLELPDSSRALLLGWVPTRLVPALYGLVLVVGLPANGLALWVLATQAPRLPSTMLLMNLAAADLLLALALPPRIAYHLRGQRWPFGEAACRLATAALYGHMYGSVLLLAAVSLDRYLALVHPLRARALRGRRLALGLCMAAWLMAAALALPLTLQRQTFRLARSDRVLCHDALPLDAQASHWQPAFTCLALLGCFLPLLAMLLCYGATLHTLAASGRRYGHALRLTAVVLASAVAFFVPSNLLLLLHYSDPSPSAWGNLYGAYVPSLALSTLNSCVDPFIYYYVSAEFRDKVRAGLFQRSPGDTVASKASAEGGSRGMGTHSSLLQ

Platelet [7] = assay: Antagonist activity at P2Y1/P2Y12 in human plasma assessed as inhibition of ADP-induced platelet aggregation at 20 nM to 1 uM preincubated for 5 mins followed by aggregation inducer addition and measured after 5 mins by light transmission aggregometry; format: cell-free; details: dose 20-1000 nM, time 10.0 min
Platelet [8] = assay: Inhibition of platelet aggregation in human platelet rich plasma at 20 uM preincubated for 5 mins followed by aggregation inducer addition and measured after 5 mins by light transmission aggregometry relative to control; format: functional; details: 10 min
[9] = target: T4, Thromboxane A2 receptor (Homo sapiens) (UniProt P21731); assay: Antagonist activity at thromboxane A2 receptor in human plasma assessed as inhibition of U46619-induced platelet aggregation at 20 nM to 1 uM preincubated for 5 mins followed by aggregation inducer addition and measured after 5 mins by light transmission aggregometry; format: functional, cell-free; details: dose 20-1000 nM, time 10.0 min
T4 sequence (whole entry): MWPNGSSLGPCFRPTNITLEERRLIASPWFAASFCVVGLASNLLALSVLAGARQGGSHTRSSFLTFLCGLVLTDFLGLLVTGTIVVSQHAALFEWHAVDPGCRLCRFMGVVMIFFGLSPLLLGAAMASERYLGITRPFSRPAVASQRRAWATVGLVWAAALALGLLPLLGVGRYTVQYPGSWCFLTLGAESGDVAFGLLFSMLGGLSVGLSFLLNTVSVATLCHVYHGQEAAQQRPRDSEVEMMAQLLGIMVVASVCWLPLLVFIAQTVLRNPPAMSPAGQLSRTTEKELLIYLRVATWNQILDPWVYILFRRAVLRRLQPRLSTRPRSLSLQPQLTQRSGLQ

[10] = Metabolic stability in human liver microsomes assessed as half life at 1 uM preincubated for 1 hr followed by NADPH addition and measured upto 60 mins by LC-MS/MS analysis; format: ADME, Microsome; details: time < 120 min
[11] = target: T3, Proteinase-activated receptor 4 (Homo sapiens); assay: Antagonist activity at PAR4 in human filtered plasma assessed as inhibition of PAR4-activated peptide AYPGPK-NH2 induced platelet aggregation at 10 nM preincubated for 5 mins followed by aggregation inducer addition and measured after 5 mins by light transmission aggregometry relative to control; format: functional, cell-free; details: filed as antagonist, time 10.0 min
Platelet [12] = assay: as §1, with “Antiplatelet aggregation” for “Antagonist”, “activity” for “activity at PAR4”, “thrombin” for “PAR4-activated peptide AYPGPK-NH2”; format: functional; details: dose 20-1000 nM, time 10 min, at 20 to 1000 nM
[13] = target: T3, Proteinase-activated receptor 4 (Homo sapiens); assay: Antagonist activity at PAR4 in human filtered plasma assessed as inhibition of PAR4-activated peptide AYPGPK-NH2 induced platelet aggregation at 3 nM preincubated for 5 mins followed by aggregation inducer addition and measured after 5 mins by light transmission aggregometry; format: functional, cell-free; details: filed as antagonist, time 10.0 min
[14] = Oral bioavailability in Sprague-Dawley rat at 50 mg/kg; format: ADME, organism-based; details: in vivo

Activity [1]: inactive
Activity [2]: inactive
IC50 (Platelet [3]): 3.2 nM
Activity [4]: inactive
Activity (Platelet [5]): inactive
Activity [6]: < 30%
Activity (Platelet [7]): inactive
Activity [9]: inactive
half-life at 1 µM [10]: 12.2 min
inhibition [11]: 100%
Activity [13]: Active
bioavailability [14]: 0.94%
Compound: COc1nn2cc(-c3cc4ccc5c(c4o3)OCCO5)nc2s1
inhibition at 20 µM (Platelet [8]): 90.5%
Activity (Platelet [12]): <30%

— ChEMBL document CHEMBL5543125, “Discovery of 2,3-Dihydro[1,4]dioxino[2,3-g]benzofuran Derivatives as Protease Activated Receptor 4 (PAR4) Antagonists with Potent Antiplatelet Aggregation Activity and Low Bleeding Tendency” (J Med Chem, 2024)
